In the Kinase Knowledgebase extract (Sharma et al. 2016):

Target: PIK3CA (human) (UniProt P42336)
Assay: Inhibition of PIK3CA Kinase Activity

Chain of PIK3CA (human) (P42336 whole entry, looked up): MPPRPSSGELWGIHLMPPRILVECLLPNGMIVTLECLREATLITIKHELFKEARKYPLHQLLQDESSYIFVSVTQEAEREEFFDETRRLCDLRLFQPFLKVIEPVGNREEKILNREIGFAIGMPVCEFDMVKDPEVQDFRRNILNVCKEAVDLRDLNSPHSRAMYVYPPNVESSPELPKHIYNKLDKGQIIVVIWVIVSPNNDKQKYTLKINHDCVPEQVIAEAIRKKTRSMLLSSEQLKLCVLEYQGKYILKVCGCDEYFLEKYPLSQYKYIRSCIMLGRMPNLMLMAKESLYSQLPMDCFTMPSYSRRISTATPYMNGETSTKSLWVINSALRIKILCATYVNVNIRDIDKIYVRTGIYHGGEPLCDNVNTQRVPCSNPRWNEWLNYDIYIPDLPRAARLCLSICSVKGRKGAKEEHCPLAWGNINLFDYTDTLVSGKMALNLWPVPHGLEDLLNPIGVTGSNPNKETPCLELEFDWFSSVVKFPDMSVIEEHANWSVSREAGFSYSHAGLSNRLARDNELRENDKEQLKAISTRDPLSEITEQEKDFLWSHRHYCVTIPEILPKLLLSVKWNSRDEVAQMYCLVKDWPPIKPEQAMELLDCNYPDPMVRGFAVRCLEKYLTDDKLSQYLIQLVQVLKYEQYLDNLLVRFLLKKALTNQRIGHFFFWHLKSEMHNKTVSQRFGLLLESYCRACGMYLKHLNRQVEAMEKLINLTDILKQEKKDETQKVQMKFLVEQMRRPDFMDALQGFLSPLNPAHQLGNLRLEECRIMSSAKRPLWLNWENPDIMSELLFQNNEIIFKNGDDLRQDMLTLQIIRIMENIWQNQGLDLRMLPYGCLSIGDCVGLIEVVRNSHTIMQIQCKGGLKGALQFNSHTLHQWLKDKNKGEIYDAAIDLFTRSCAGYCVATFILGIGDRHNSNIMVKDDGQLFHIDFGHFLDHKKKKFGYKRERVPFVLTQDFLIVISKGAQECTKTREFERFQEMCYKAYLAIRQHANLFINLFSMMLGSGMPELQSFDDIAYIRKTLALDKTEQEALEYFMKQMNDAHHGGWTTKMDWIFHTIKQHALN

SMILES	IC50
CCSc1nc2c(-c3cnc(N)nc3)nc(N3CCOCC3)nc2n1C(C)C	< 0.1 µM
CCC(C)n1c(-c2ccsc2)nc2c(-c3cnc(N)nc3)nc(N3CCOCC3)nc21 (centres undefined)	< 0.1 µM
CCC(C)n1c(NC(C)C)nc2c(-c3cnc(N)nc3)nc(N3CCOCC3)nc21 (centres undefined)	< 0.1 µM
CCC(C)n1c(SC)nc2c(-c3cnc(N)nc3)nc(N3CCOCC3)nc21 (centres undefined)	0.1 to 1 µM
CCC(C)n1c(Sc2ccccc2)nc2c(-c3cnc(N)nc3)nc(N3CCOCC3)nc21 (centres undefined)	0.1 to 1 µM
CCOc1nc2c(-c3cnc(N)nc3)nc(N3CCOCC3)nc2n1C(C)CC (centres undefined)	0.1 to 1 µM
CCC(C)n1c(N2CCCC2)nc2c(-c3cnc(N)nc3)nc(N3CCOCC3)nc21 (centres undefined)	0.1 to 1 µM
CC(C)n1c(-c2ccsc2)nc2c(-c3cnc(N)nc3)nc(N3CCOCC3)nc21	< 0.1 µM
CSc1nc2c(-c3cnc(N)nc3)nc(N3CCOCC3)nc2n1C(C)C	< 0.1 µM
CCC(C)n1c(N2CCCC2C)nc2c(-c3cnc(N)nc3)nc(N3CCOCC3)nc21 (centres undefined)	0.1 to 1 µM
CC(=O)Nc1cccc(-c2nc3c(-c4cnc(N)nc4)nc(N4CCOCC4)nc3n2C(C)C)c1	< 0.1 µM
CCC(C)n1c(N2CCc3ccccc3C2)nc2c(-c3cnc(N)nc3)nc(N3CCOCC3)nc21 (centres undefined)	0.1 to 1 µM
CC(C)n1c(OC2CCCC2)nc2c(-c3cnc(N)nc3)nc(N3CCOCC3)nc21	0.1 to 1 µM
CC(C)Nc1nc2c(-c3cnc(N)nc3)nc(N3CCOCC3)nc2n1C1CCCC1	< 0.1 µM
CCCCNc1nc2c(-c3cnc(N)nc3)nc(N3CCOCC3)nc2n1C(C)CC (centres undefined)	< 0.1 µM
CCC(C)n1c(NCCN(C)C)nc2c(-c3cnc(N)nc3)nc(N3CCOCC3)nc21 (centres undefined)	0.1 to 1 µM
Nc1ncc(-c2nc(N3CCOCC3)nc3c2nc(-c2ccsc2)n3C2CCCC2)cn1	< 0.1 µM

SMILES	IC50
CCCCNc1nc2c(-c3cnc(N)nc3)nc(N3CCOCC3)nc2n1C1CCCC1	< 0.1 µM
CC1CCCCC1n1c(N(C)C)nc2c(-c3cnc(N)nc3)nc(N3CCOCC3)nc21 (centres undefined)	0.1 to 1 µM
CN(C)c1nc2c(-c3cnc(N)nc3)nc(N3CCOCC3)nc2n1C1CCCC1	< 0.1 µM
CC(C)n1c(-c2ccc3c(c2)OCO3)nc2c(-c3cnc(N)nc3)nc(N3CCOCC3)nc21	< 0.1 µM
CCC(C)n1c(-c2ccccc2)nc2c(-c3cnc(N)nc3)nc(N3CCOCC3)nc21 (centres undefined)	0.1 to 1 µM
CN1CCN(c2nc3c(-c4cnc(N)nc4)nc(N4CCOCC4)nc3n2C2CCCC2)CC1	0.1 to 1 µM
CC(C)n1c(-c2ccccc2)nc2c(-c3cnc(N)nc3)nc(N3CCOCC3)nc21	< 0.1 µM
CCC(C)n1c(NC(C)C)nc2c(-c3cnc(N)cn3)nc(N3CCOCC3)nc21 (centres undefined)	0.1 to 1 µM
CC(C)Nc1nc2c(-c3cnc(N)nc3)nc(N3CCOCC3)nc2n1C1CCCCC1C (centres undefined)	< 0.1 µM
CCC(C)n1c(N2CCN(CC)CC2)nc2c(-c3cnc(N)nc3)nc(N3CCOCC3)nc21 (centres undefined)	0.1 to 1 µM
CC(C)Nc1nc2c(-c3cnc(N)nc3)nc(N3CCOCC3)nc2n1C(C)C	< 0.1 µM
CCC(C)n1c(SC)nc2c(-c3cnc(N)cn3)nc(N3CCOCC3)nc21 (centres undefined)	0.1 to 1 µM
CCC(C)n1c(NCCOC)nc2c(-c3cnc(N)nc3)nc(N3CCOCC3)nc21 (centres undefined)	< 0.1 µM
CC(C)n1c(-c2ccccc2)nc2c(-c3cnc(N)cn3)nc(N3CCOCC3)nc21	0.1 to 1 µM
CCC(C)n1c(N(C)C)nc2c(-c3cnc(N)nc3)nc(N3CCOCC3)nc21 (centres undefined)	< 0.1 µM
CCSc1nc2c(-c3cnc(N)cn3)nc(N3CCOCC3)nc2n1C(C)CC (centres undefined)	0.1 to 1 µM
Nc1ncc(-c2nc(N3CCOCC3)nc3c2nc(NCC2CC2)n3C2CCCC2)cn1	< 0.1 µM
